Experimental data from publication PMC11456799 (Molecular Therapy. Nucleic Acids, 2024).

Tests used:
WA-1/2020 SARS-CoV-2 = tested on: WA-1/2020 SARS-CoV-2; set-up: species or system K18-hACE2 mice; conditions: mouse, in vivo, po, 150 mg/kg
in vitro = conditions: human
[1] = tested on: SARS-CoV-2 Omicron XBB1.5; assay: In vitro antiviral assay in HeLa-ACE2 cells; format: cell-based; conditions: Severe acute respiratory syndrome coronavirus 2, HeLa-ACE2
SARS-CoV-2 Omicron BA.1 = assay: In vitro antiviral assay in HeLa-ACE2 cells; format: cell-based; conditions: Severe acute respiratory syndrome coronavirus 2, HeLa-ACE2
SARS-CoV-2 Omicron BA.5 = assay: In vitro antiviral assay in HeLa-ACE2 cells; format: cell-based; conditions: Severe acute respiratory syndrome coronavirus 2, HeLa-ACE2
[2] = tested on: SARS-CoV-2 Delta (B.1.617.2); assay: In vitro antiviral assay in HeLa-ACE2 cells; format: cell-based; conditions: Severe acute respiratory syndrome coronavirus 2, HeLa-ACE2
SARS-CoV-2 WA-1/2020 = assay: In vitro antiviral assay in HeLa-ACE2 cells; format: cell-based; conditions: Severe acute respiratory syndrome coronavirus 2, HeLa-ACE2
SARS-CoV-2 Omicron JN.1 = assay: In vitro antiviral assay in HeLa-ACE2 cells; format: cell-based; conditions: Severe acute respiratory syndrome coronavirus 2, HeLa-ACE2
HeLa-ACE2 cells = conditions: human

| Structure (SMILES) | lung virus titer lowering (positive control) (WA-1/2020 SARS-CoV-2) | CC50 (in vitro) | IC50 [1] | IC90 [1] | IC50 (SARS-CoV-2 Omicron BA.1) | IC90 (SARS-CoV-2 Omicron BA.1) | IC50 (SARS-CoV-2 Omicron BA.5) | IC90 (SARS-CoV-2 Omicron BA.5) | IC50 [2] | IC90 [2] | IC50 (SARS-CoV-2 WA-1/2020) | IC90 (SARS-CoV-2 WA-1/2020) | IC50 (SARS-CoV-2 Omicron JN.1) | IC90 (SARS-CoV-2 Omicron JN.1) | CC50 (HeLa-ACE2 cells) |
| --- | --- | --- | --- | --- | --- | --- | --- | --- | --- | --- | --- | --- | --- | --- | --- |
| CC(C)C(=O)OC[C@H]1O[C@@H](n2ccc(NO)nc2=O)[C@H](O)[C@@H]1O [MK-4482, molnupiravir] | approximately 3 log10 ffu/g tissue |  |  |  |  |  |  |  |  |  |  |  |  |  |  |
| CC(C)(C)[C@H](NC(=O)C(F)(F)F)C(=O)N1C[C@H]2[C@@H]([C@H]1C(=O)N[C@H](C#N)C[C@@H]1CCNC1=O)C2(C)C [Nirmatrelvir, nirmatrelvir] |  | > 5000 nM | 20 nM | 50 nM | 30 nM | 80 nM | 50 nM | 140 nM | 40 nM | 170 nM | 110 nM | 210 nM | 60 nM | 150 nM | > 5000 nM |
